According to patent US20260132129A1 (Genesis Therapeutics, Inc., priority 2022, published 2026):
pIC50: −log10 of the molar value.

Target: T1, PI3Kα H1047R (T47D cells) (Homo sapiens, UniProt P42336, H1047R)
T1 construct: endogenous in cells; host or cells: T47D cells
Test: PI3Kα cellular assay: pAKT HTRF in T47D cells after EGF stimulation
Format: cell-based
Settings: for pIC50: T47D cells (PI3Kα H1047R), pAKT S473 HTRF, EGF stimulation
In short: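 pAKT read by HTRF in lysates of EGF-stimulated (20 ng/mL, 10 min) T47D H1047R cells. Before stimulation, serum-starved cells (16 h) received compound for 1 h at 37 °C, dosed from 10,000 nM down to 0.5 nM in 3-fold steps.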

[1] = selectivity of T47D (H1047R) over SKBR3 (WT) pAKT IC50
[2] = selectivity T47D (H1047R) over SKBR3 (WT), pAKT HTRF

T1 sequence (P42336 whole entry H1047R): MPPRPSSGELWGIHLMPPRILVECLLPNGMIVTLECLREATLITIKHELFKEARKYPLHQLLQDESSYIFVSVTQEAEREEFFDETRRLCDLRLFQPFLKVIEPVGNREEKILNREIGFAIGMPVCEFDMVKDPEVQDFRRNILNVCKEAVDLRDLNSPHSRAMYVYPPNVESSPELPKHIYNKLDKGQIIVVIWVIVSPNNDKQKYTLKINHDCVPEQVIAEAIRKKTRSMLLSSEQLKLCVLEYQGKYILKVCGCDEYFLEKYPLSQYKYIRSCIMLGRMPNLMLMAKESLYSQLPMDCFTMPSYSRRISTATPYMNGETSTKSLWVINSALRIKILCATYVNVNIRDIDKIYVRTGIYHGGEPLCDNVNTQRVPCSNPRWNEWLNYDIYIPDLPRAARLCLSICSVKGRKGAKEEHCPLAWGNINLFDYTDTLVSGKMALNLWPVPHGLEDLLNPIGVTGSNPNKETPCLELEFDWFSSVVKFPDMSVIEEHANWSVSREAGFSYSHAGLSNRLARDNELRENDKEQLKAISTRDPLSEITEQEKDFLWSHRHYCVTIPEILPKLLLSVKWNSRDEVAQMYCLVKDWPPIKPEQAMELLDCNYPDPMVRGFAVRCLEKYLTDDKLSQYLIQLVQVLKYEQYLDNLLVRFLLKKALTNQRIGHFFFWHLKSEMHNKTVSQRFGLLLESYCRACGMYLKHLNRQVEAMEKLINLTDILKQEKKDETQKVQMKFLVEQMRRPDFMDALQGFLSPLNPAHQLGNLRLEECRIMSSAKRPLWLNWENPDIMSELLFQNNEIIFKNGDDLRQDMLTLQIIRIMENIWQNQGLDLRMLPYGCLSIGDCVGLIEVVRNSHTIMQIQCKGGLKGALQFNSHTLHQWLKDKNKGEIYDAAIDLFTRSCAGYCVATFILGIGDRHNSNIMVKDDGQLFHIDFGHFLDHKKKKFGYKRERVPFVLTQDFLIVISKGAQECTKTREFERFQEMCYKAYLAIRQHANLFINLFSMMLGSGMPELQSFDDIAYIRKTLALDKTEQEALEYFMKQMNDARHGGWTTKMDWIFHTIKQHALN
T1 sequence (P27986 whole entry partner): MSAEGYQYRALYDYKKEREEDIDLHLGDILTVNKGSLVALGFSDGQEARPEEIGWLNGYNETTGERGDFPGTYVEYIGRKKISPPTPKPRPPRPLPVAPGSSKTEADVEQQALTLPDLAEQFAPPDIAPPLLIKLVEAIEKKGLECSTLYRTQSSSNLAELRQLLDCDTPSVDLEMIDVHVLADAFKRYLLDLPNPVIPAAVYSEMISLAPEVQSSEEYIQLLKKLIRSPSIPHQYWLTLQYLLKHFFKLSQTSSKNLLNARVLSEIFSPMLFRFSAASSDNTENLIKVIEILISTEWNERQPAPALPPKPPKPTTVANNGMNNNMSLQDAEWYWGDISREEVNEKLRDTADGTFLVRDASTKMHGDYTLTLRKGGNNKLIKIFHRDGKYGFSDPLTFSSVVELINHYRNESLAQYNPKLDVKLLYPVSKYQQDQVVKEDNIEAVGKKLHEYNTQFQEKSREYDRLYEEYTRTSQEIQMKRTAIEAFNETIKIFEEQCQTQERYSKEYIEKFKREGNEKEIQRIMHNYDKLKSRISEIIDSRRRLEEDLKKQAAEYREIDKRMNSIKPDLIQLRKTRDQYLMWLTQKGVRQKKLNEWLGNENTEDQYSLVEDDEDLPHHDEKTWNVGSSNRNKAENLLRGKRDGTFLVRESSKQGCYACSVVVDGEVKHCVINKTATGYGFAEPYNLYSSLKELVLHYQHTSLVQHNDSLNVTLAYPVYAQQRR

| pIC50 | T47D pAKT S473 HTRF IC50 (H1047R): T47D (H1047R) selectivity over SKBR3 (WT) [1] | T47D pAKT S473 HTRF IC50 (H1047R): T47D (H1047R) selectivity over SKBR3 (WT) [2] | SMILES |
| --- | --- | --- | --- |
| > 7.00 | A (A denotes >20-fold) | – | Cc1cc([C@@H](C)Nc2ccccc2C(=O)O)c2nc(-c3ccc(F)c(C)c3)c(C)c(=O)n2c1 [Compound 1022] |
| 6.30 to 7.00 | A (A denotes >20-fold) | – | Cc1cc([C@@H](C)Nc2ccccc2S(N)(=O)=O)c2nc(-c3ccc4c(C)nn(C5CC5)c4c3)c(C)c(=O)n2c1 [Compound 1027] |
| – | C (C denotes ≤5-fold) | – | Cc1cc([C@H](C)Nc2ccccc2S(N)(=O)=O)c2nc(-c3ccc4c(C)nn(C5CC5)c4c3)c(C)c(=O)n2c1 [Compound 1028] |
| < 5.70 | C (C denotes ≤5-fold) | – | Cc1cc([C@H](C)Nc2ccccc2S(N)(=O)=O)c2nc(-c3cccc(C#N)c3)c(C)c(=O)n2c1 [Compound 1035] |
| < 5.70 | C (C denotes ≤5-fold) | – | C=CC(=O)Nc1ccc(C(=O)O)c(NC(C)c2cc(C)cn3c(=O)c(C)c(N4Cc5ccccc5C4)nc23)c1 (stereo not shown) [Compound 1039] |
| – | C (C denotes ≤5-fold) | – | CC(=O)NS(=O)(=O)c1ccccc1N[C@@H](C)c1cc(C)cn2c(=O)c(C)c(-c3ccc4c(c3)CC(F)(F)C4)nc12 [Compound 1040] |
| – | B (B denotes 20-fold≥value>5-fold) | – | CCc1c(-c2ccc3c(c2)c(C)cn3C)nc2c([C@H](C)Nc3ccccc3C(=O)O)cc(C)cn2c1=O [Compound 1043] |
| < 5.70 | C (C denotes ≤5-fold) | – | Cc1cc([C@H](C)Nc2ccccc2C(=O)O)c2nc(-c3ccc4c(c3)c(C#N)nn4C3CC3)c(C)c(=O)n2c1 [Compound 1049] |
| – | C (C denotes ≤5-fold) | – | Cc1cc([C@H](C)Nc2ccccc2C(=O)O)c2nc(-c3cnc4c(c3)c(C)cn4C)c(C)c(=O)n2c1 [Compound 1053] |
| – | B (B denotes 20-fold≥value>5-fold) | – | Cc1cc(C(C)Nc2ccccc2C(=O)O)c2nc(-c3cnc4c(c3)c(C)nn4C3CC3)c(C)c(=O)n2c1 (stereo not shown) [Compound 1054] |
| < 5.70 | – | C (C denotes ≤5-fold) | Cc1cc([C@H](C)Nc2ccccc2S(N)(=O)=O)c2nc(-c3cnc4c(c3)c(C)cn4C)c(C)c(=O)n2c1 [Compound 1060] |
| – | – | C (C denotes ≤5-fold) | Cc1cc([C@@H](C)Nc2ccccc2S(C)(=O)=O)c2nc(-c3ccc4c(C)cn(C)c4c3)c(C)c(=O)n2c1 [Compound 1061] |
| – | – | C (C denotes ≤5-fold) | Cc1cc([C@H](C)Nc2ccccc2S(C)(=O)=O)c2nc(-c3ccc4c(C)cn(C)c4c3)c(C)c(=O)n2c1 [Compound 1062] |
| 6.30 to 7.00 | – | A (A denotes >20-fold) | Cc1cc(C(C)Nc2ccccc2C(N)=O)c2nc(-c3ccnc(C4CC4)c3)c(C)c(=O)n2c1 (stereo not shown) [Compound 1063] |
| > 7.00 | – | A (A denotes >20-fold) | COc1ccc(-c2nc3c([C@@H](C)Nc4ccccc4C(=O)O)cc(C)cn3c(=O)c2C)cc1 [Compound 1070] |
| < 5.70 | – | C (C denotes ≤5-fold) | Cc1cc([C@H](C)Nc2ccccc2C(=O)O)c2nc(-c3ccc(CC4CCN(C(=O)C5CC5)CC4)c(F)c3)c(C)c(=O)n2c1 [Compound 1075] |
| 5.70 to 6.30 | – | B (B denotes 20-fold≥value>5-fold) | Cc1cc([C@H](C)Nc2ccccc2C(=O)O)c2nc(-c3ccc4c(c3)c(C#N)nn4C)c(C)c(=O)n2c1 [Compound 1082] |
| 6.30 to 7.00 | – | A (A denotes >20-fold) | Cc1cc(C(C)Nc2ccccc2C(N)=O)c2nc(-c3ccc(F)c(C#N)c3)c(C)c(=O)n2c1 (stereo not shown) [Compound 1092] |
| < 5.70 | – | C (C denotes ≤5-fold) | Cc1cc([C@@H](C)Nc2ccccc2S(N)(=O)=O)c2nc(-c3ccnc(C4CC4)c3)c(C)c(=O)n2c1 [Compound 1095] |
| > 7.00 | – | A (A denotes >20-fold) | Cc1cc([C@@H](C)Nc2ccccc2S(N)(=O)=O)c2nc(-c3cccc(C(F)F)c3)c(C)c(=O)n2c1 [Compound 1097] |

Further lines, the molecule ahead of its results:

| SMILES | pIC50 | T47D pAKT S473 HTRF IC50 (H1047R): T47D (H1047R) selectivity over SKBR3 (WT) [1] | T47D pAKT S473 HTRF IC50 (H1047R): T47D (H1047R) selectivity over SKBR3 (WT) [2] |
| --- | --- | --- | --- |
| Cc1cc(C(C)Nc2ccccc2C(=O)O)c2nc(-c3ccc4c(c3)c(C#N)nn4C3CC3)c(C)c(=O)n2c1 (stereo not shown) [Compound 1026] | 6.30 to 7.00 | A (A denotes >20-fold) | – |
| Cc1cc([C@H](C)Nc2ccccc2S(N)(=O)=O)c2nc(-c3ccc(F)c(C#N)c3)c(C)c(=O)n2c1 [Compound 1032] | < 5.70 | C (C denotes ≤5-fold) | – |
| Cc1cc(C(C)Nc2ccccc2S(N)(=O)=O)c2nc(-c3cccc(C#N)c3)c(C)c(=O)n2c1 (stereo not shown) [Compound 1033] | 6.30 to 7.00 | A (A denotes >20-fold) | – |
| Cc1cc([C@@H](C)Nc2ccccc2S(N)(=O)=O)c2nc(-c3cccc(C#N)c3)c(C)c(=O)n2c1 [Compound 1034] | > 7.00 | A (A denotes >20-fold) | – |
| C[C@@H]1C[C@H](C)CN(c2cc(=O)n3cc(C(F)(F)F)cc([C@@H](C)Nc4ccccc4C(=O)O)c3n2)C1 [Compound 1036] | > 7.00 | A (A denotes >20-fold) | – |
| Cc1cc([C@@H](C)Nc2ccccc2C(=O)O)c2nc(-c3ccc4c(c3)c(C#N)nn4C3CC3)c(C)c(=O)n2c1 [Compound 1048] | 6.30 to 7.00 | A (A denotes >20-fold) | – |
| Cc1cc([C@@H](C)Nc2ccccc2C(=O)O)c2nc(-c3cnc4c(c3)c(C)cn4C)c(C)c(=O)n2c1 [Compound 1050] | > 7.00 | A (A denotes >20-fold) | – |
| Cc1cc([C@H](C)Nc2ccccc2C(=O)O)c2nc(-c3cnc4c(c3)c(C)cn4C)c(C)c(=O)n2c1 [Compound 1051] | – | C (C denotes ≤5-fold) | – |
| Cc1cc([C@@H](C)Nc2ccccc2C(=O)O)c2nc(-c3cnc(C)c(Cl)c3)c(C)c(=O)n2c1 [Compound 1052] | 6.30 to 7.00 | A (A denotes >20-fold) | – |
| Cc1cc([C@@H](C)Nc2ccccc2C(=O)O)c2nc(C3CCOCC3)c(C)c(=O)n2c1 [Compound 1055] | 6.30 to 7.00 | A (A denotes >20-fold) | – |
| Cc1cc([C@H](C)Nc2ccccc2C(=O)O)c2nc(C3CCOCC3)c(C)c(=O)n2c1 [Compound 1056] | < 5.70 | C (C denotes ≤5-fold) | – |
| Cc1cc([C@H](C)Nc2ccccc2C(=O)O)c2nc(-c3ccnc(C)c3)c(C)c(=O)n2c1 [Compound 1068] | < 5.70 | – | C (C denotes ≤5-fold) |
| Cc1cc([C@@H](C)Nc2ccccc2C(=O)O)c2nc(-c3ccc(Cl)cc3F)c(C)c(=O)n2c1 [Compound 1069] | > 7.00 | – | A (A denotes >20-fold) |
| COc1ccc(-c2nc3c([C@H](C)Nc4ccccc4C(=O)O)cc(C)cn3c(=O)c2C)cc1 [Compound 1071] | < 5.70 | – | C (C denotes ≤5-fold) |
| Cc1cc([C@@H](C)Nc2ccccc2C(=O)O)c2nc(-c3cccc(F)c3)c(C)c(=O)n2c1 [Compound 1073] | < 5.70 | – | C (C denotes ≤5-fold) |
| Cc1cc([C@@H](C)Nc2ccccc2C(=O)O)c2nc(-c3cccc(C(F)F)c3)c(C)c(=O)n2c1 [Compound 1077] | 5.70 to 6.30 | – | B (B denotes 20-fold≥value>5-fold) |
| Cc1cc([C@H](C)Nc2ccccc2C(=O)O)c2nc(-c3cnc(C#N)c(Cl)c3)c(C)c(=O)n2c1 [Compound 1084] | < 5.70 | – | C (C denotes ≤5-fold) |
| Cc1cc(C(C)Nc2ccccc2)c2nc(N3Cc4ccccc4C3)c(C)c(=O)n2c1 (stereo not shown) [Compound 1085] | < 5.70 | – | C (C denotes ≤5-fold) |
| Cc1cc(C(C)Nc2ccccc2)c2nc(-c3ccc(F)cc3)c(C)c(=O)n2c1 (stereo not shown) [Compound 1086] | < 5.70 | – | C (C denotes ≤5-fold) |
| Cc1cc([C@@H](C)Nc2ccccc2C(N)=O)c2nc(-c3ccnc(C4CC4)c3)c(C)c(=O)n2c1 [Compound 1089] | < 5.70 | – | C (C denotes ≤5-fold) |
| Cc1cc(C(C)Nc2ccccc2C(N)=O)c2nc(-c3ccnc(C4CC4)c3)c(C)c(=O)n2c1 (stereo not shown) [Compound 1090] | > 7.00 | – | A (A denotes >20-fold) |
| Cc1cc(C(C)Nc2ccccc2C(N)=O)c2nc(-c3cnc(C)c(Cl)c3)c(C)c(=O)n2c1 (stereo not shown) [Compound 1094] | 6.30 to 7.00 | – | A (A denotes >20-fold) |
| Cc1cc(C(C)Nc2ccccc2S(N)(=O)=O)c2nc(-c3ccnc(C4CC4)c3)c(C)c(=O)n2c1 (stereo not shown) [Compound 1096] | > 7.00 | – | A (A denotes >20-fold) |
| Cc1cc([C@H](C)Nc2ccccc2S(N)(=O)=O)c2nc(-c3cccc(C(F)F)c3)c(C)c(=O)n2c1 [Compound 1098] | < 5.70 | – | C (C denotes ≤5-fold) |
| Cc1cc(C(C)Nc2ccccc2C(=O)O)c2nc(-c3cc(C)nc(Cl)c3)c(C)c(=O)n2c1 (stereo not shown) [Compound 1099] | > 7.00 | – | A (A denotes >20-fold) |
